ChEMBL document CHEMBL4418486, “Heterocyclic compounds for the inhibition of pask” (2015)

Assay: Half life in Sprague-Dawley rat at 10 mg/kg, po measured after 0.083 to 24 hrs post dose by LC/MS/MS analysis
Format: ADME, organism-based
Conditions: in vivo

half-life: 3.55 h
SMILES: CCn1ncc2cc(-c3cc(=O)n4ncc(-c5nc(C)no5)c4[nH]3)ccc21
